Experimental data reported in patent US8455548B2, “Method of treating sensorimotor disorders with alpha-2 adrenergic receptor agonists” (Allergan, Inc., priority 2007, dated 2013).
Marks after values point to notes of the source that are not given here.

Key:
[1] = test system: amphetamine-induced stereotypy; assay: Amphetamine-induced stereotypy (open field locomotor behavior); assay type: in vivo, C57B/6 male mice; details: for AMBULATIONS: indicative of hyperactivity; for FINE MOVEMENTS: scored 60 min post-amphetamine, indicative of stereotypy; for inhibition of amphetamine-induced stereotypy (in words): high-dose psychostimulant administration
Method: C57B/6 male mice were placed in an open field apparatus and allowed to habituate for 15-30 minutes. Compounds A or B were administered PO at 0, +15, or +30 minutes relative to amphetamine (8 mg/kg) administration (Compound B was also administered 15 minutes pre-amphetamine), and locomotor behavior was scored for an additional 60 minutes post-amphetamine. Amphetamine was administered IP. Locomotion was separated into “fine movements” (indicative of stereotypy) and “ambulations” (indicative of hyperactivity).
Amphetamine induced stereotypy. C57B/6 male mice were placed in an open field apparatus and allowed to habituate for 15-30 minutes. Compounds A or B were administered at 0, +15, or +30 minutes relative to amphetamine (8 mg/kg) administration (Compound B was also administered 15 minutes pre-amphetamine), and locomotor behavior was scored for an additional 60 minutes post-amphetamine. Locomotion was separated into “fine movements” (indicative of stereotypy) and “ambulations” (indicative of hyperactivity).

alpha-2A receptor = target: T1, alpha-2A receptor (Homo sapiens, UniProt P08913); assay: Alpha-adrenergic receptor activation (efficacy relative to brimonidine, e.g. RSAT); assay type: cell-based; details: lacks significant activity = less than 40% of the efficacy of brimonidine at the alpha-2A receptor subtype
T1 sequence (P08913 1-465): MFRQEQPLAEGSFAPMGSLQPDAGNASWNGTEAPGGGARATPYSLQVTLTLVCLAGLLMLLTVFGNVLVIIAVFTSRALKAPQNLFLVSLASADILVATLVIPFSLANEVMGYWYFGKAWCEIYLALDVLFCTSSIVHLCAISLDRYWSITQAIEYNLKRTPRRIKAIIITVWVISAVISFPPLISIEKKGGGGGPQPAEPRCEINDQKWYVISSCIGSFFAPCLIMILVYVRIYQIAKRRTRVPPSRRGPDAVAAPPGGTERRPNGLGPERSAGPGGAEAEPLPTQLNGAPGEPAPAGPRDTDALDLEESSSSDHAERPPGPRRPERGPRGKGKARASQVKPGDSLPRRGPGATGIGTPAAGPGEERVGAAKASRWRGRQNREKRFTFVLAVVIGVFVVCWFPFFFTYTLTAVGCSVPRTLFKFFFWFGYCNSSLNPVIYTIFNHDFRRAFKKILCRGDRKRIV
Source text: The methods of the present invention use alpha-2 agonists lacking significant activity at the alpha-2A receptor subtype. An agonist lacks significant alpha-2A receptor activity if the agonist has less than 40% of the efficacy of brimonidine at the alpha-2A receptor subtype. Compounds of the invention include, therefore, alpha-2B receptor agonists lacking significant alpha-2A activity; alpha 2B/2C receptor agonists lacking significant alpha-2A activity; and alpha-2C receptor agonists lacking significant alpha-2A activity.
Efficacy, also known as intrinsic activity, is a measure of maximal receptor activation achieved by a compound and can be determined using any accepted assay of alpha-adrenergic receptor activation, such as a cAMP or Receptor Selection and Amplification Technology (RSAT). […]
The RSAT assay measures receptor-mediated loss of contact inhibition resulting in selective proliferation of receptor-containing cells in a mixed population of confluent cells. The increase in cell number is assessed with an appropriate detectable marker gene such as beta-galactosidase, if desired, in a high throughput or ultra high throughput assay format. […]
As an example, an RSAT assay can be performed essentially as follows. […] The EC50 and maximal effect (i.e., efficacy) of each drug at each receptor is determined.

[2] = test system: PPI disrupted by psychostimulants; assay: Prepulse inhibition (PPI) of the startle response disrupted by psychostimulants; assay type: in vivo, Male Sprague-Dawley rats; details: for % PPI PP3: pre-pulse 3 dB above background; for % PPI PP6: pre-pulse 6 dB above background; for % PPI PP12: pre-pulse 12 dB above background
Method: Male Sprague-Dawley rats were treated with Drug 1 (IP) followed 20 minutes later by Drug 2 (IP or SC as indicated in the methods). Ten minutes following administration of Drug 2 (except in the case of apomorphine where animals were immediately tested post-apomorphine), rats were placed in the startle chamber and allowed 5 minutes to acclimate with 65-dB background white noise. The acclimation period was followed by a ˜15 minute test session during which time rats were presented with 40 ms 120 dB startle pulses alone or preceded 100 ms by a pre-pulse 3, 6, or 12 dB above background. These four types of active stimuli were presented in pseudorandom order along with no-stimulation trials to assess baseline activity throughout testing. An average of 20 s separated each trial type. The maximum startle magnitude was measured for every trial type. PPI for each animal was calculated as the percentage startle magnitude to the pre-pulse+pulse or no-stimulation trials relative to the pulse-alone startle magnitude. * and ** indicate differences relative to vehicle+vehicle-treated animals (P<0.05 and P<0.01, respectively).
Prepulse inhibition of the startle response. Sprague Dawley male rats (˜250 g-300 g) are used (n=8/group). Rats are administered drug 1 (vehicle, Compound A, Compound B, or clonidine) followed 20 minutes later by amphetamine (2 mg/kg, s.c.), apomorphine (0.5 mg/kg s.c), PCP (2 mg/kg i.p.) or vehicle (0.9% NaCl, s.c.). Either immediately (apomorphine) or 10 minutes (amphetamine, PCP, or vehicle) following injection of drug 2, animals are placed in the SR-Lab startle chamber (San Diego Instruments, San Diego Calif.). Each rat is acclimated to the chamber for 5 minutes with 65 dB background noise. This acclimation period is followed by a ˜15 minute PPI test session where rats are presented with 120 dB startle pulses without a pre-pulse or pulses preceded by a pre-pulse of 3, 6, or 12 dB above background noise. These active stimuli are presented in pseudorandom order along with no-sound trials, with an average of 20 sec separating each trial (range 5-27 seconds). A sensor in the chamber records the startle magnitude following all stimuli presented. % PPI represents the percentage startle magnitude to the pre-pulse+pulse or no-stim trials relative to the pulse-alone startle magnitude.
The alpha 2B compounds were administered i.p. or p.o., PCP was administered i.p., and apomorphine and amphetamine were administered s.c.

[3] = compound PO at 0 min post-amphetamine (8 mg/kg IP)
[4] = compound PO at 15 min post-amphetamine (8 mg/kg IP)
[5] = compound PO at 30 min post-amphetamine (8 mg/kg IP)
[6] = compound PO at -15 min relative to amphetamine (8 mg/kg IP)
[7] = Drug 1 10 ug/kg, Drug 2 Amph (2 mg/kg)
[8] = Drug 1 30 ug/kg, Drug 2 Amph (2 mg/kg)
[9] = Drug 1 100 ug/kg, Drug 2 Amph (2 mg/kg)
[10] = Drug 1 30 ug/kg, Drug 2 Apo (0.5 mg/kg)
[11] = Drug 1 30 ug/kg, Drug 2 PCP (2 mg/kg)
[12] = Drug 1 0.03 mg/kg, Drug 2 Amph (2 mg/kg)

Compound | AMBULATIONS [1, 3] | FINE MOVEMENTS [1, 3] | AMBULATIONS [1, 4] | FINE MOVEMENTS [1, 4] | AMBULATIONS [1, 5] | FINE MOVEMENTS [1, 5] | inhibition of amphetamine-induced stereotypy (in words) [1] | alpha-2A receptor activity (in words) (alpha-2A receptor) | % PPI PP3 [2, 9] [%] | % PPI PP6 [2, 9] [%] | % PPI PP12 [2, 9] [%] | % PPI PP3 [2, 10] [%] | % PPI PP6 [2, 10] [%] | % PPI PP12 [2, 10] [%] | % PPI PP3 [2, 11] [%] | % PPI PP6 [2, 11] [%] | % PPI PP12 [2, 11] [%] | also measured
O=C1c2ccccc2CC[C@H]1Cc1c[nH]c(=S)[nH]1 [Compound B] | 9954.8 ± 1042.9 | 736.7 ± 103.4^⋄ | 7226.2 ± 457.3 | 1096.3 ± 79.2^⋄ | 8453.8 ± 461.7 | 1284.8 ± 48.8^⋄ | effectively inhibit stereotypy | lack significant alpha-2A receptor activity | 34.5 ± 5.7 | 45.3 ± 7.4 | 67.0 | – | – | – | – | – | – | AMBULATIONS [1, 6]: 7258.8 ± 672.4; FINE MOVEMENTS [1, 6]: 937.3 ± 47.3^⋄; % PPI PP3 [2, 7]: 28.2 ± 7.4%; % PPI PP6 [2, 7]: 30.9 ± 6.2%*; % PPI PP12 [2, 7]: 46.9%; % PPI PP3 [2, 8]: 25.3 ± 9.2%; % PPI PP6 [2, 8]: 48.6 ± 5.3%; % PPI PP12 [2, 8]: 60.0%
OCCNC(=S)NCc1cccc(Cl)c1F [Compound A] | 6338.0 ± 714.1 | 810.1 ± 112.5^⋄ | 14056.6 ± 708.7 | 1312.9 ± 205.2^⋄ | 7494.6 ± 612.3 | 2581.3 ± 359.1 | effectively inhibit stereotypy | lack significant alpha-2A receptor activity | 38.6 ± 7.1 | 50.2 ± 4.7 | 68.5 | 38.5 ± 7.7 | 53.8 ± 6.2 | 58.9 | 40.2 ± 7.5 | 50.6 ± 5.5 | 62.9 | restoration of PPI disrupted by psychostimulants (in words) ([2]; amphetamine, apomorphine, and phencyclidine): significantly inhibited the disruption of PPI
Clc1cccc(Cl)c1N=C1NCCN1 [Clonidine, reference compound] | – | – | – | – | – | – | – | – | – | – | – | 20.0 ± 10.6 | 31.5 ± 11.0 | 24.5 | 31.7 ± 13.5 | 30.1 ± 13.1 | 53.7 | % PPI PP3 [2, 12]: 21.8 ± 9.1%; % PPI PP6 [2, 12]: 35.5 ± 8.6%; % PPI PP12 [2, 12]: 51.3%
